Our source for the T/C values is PubChem BioAssay AID248 (DTP/NCI, 2004).

The subject of the experiment is L1210 leukemia ip in BDF1 mice, survival T/C. The experiment can be described thus: NCI In Vivo Anticancer Drug Screen. Data for tumor model L1210 Leukemia (intraperitoneal) in B6D2F1 (BDF1) mice. The note with it: endpoint: mean survival time, higher = longer survival. A digest of the protocol:
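Read-out is survival time, reported as the treated-group measurement over the vehicle-control measurement.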

[1] abbreviates: dose: 100.0 mg/kg/injection, schedule: Q04DX003 (ip), vehicle: saline.
The mark [2] stands for this setting: dose: 100.0 mg/kg/injection, schedule: Q04DX003 (ip), vehicle: Klucel (hydroxypropylcellulose) (HPC).
[3] abbreviates: dose: 100.0 mg/kg/injection, schedule: Q01DX001 (ip), vehicle: saline.
Where [4] appears, read: dose: 200.0 mg/kg/injection, schedule: Q01DX001 (ip), vehicle: saline.
The mark [5] stands for this setting: dose: 200.0 mg/kg/injection, schedule: Q04DX003 (ip), vehicle: saline.
The mark [6] stands for this setting: dose: 400.0 mg/kg/injection, schedule: Q01DX001 (ip), vehicle: saline.
The mark [7] stands for this setting: dose: 400.0 mg/kg/injection, schedule: Q04DX003 (ip), vehicle: saline.
Where [8] appears, read: dose: 50.0 mg/kg/injection, schedule: Q04DX002 (ip), vehicle: Klucel (hydroxypropylcellulose) (HPC).

Values joined by “and” are separate entries in the source; they are usually repeats but may differ in a detail not shown here. Equal entries are not always repeated. Inconclusive results and toxic doses are left out.

As to `CN=C(NC)Nc1ccc(NC(=O)c2ccc(C(=O)Nc3ccc(NC(=NC)NC)cc3)cc2)cc1`, the T/C is 97 % of control (dose: 0.8 mg/kg/injection, schedule: Q01DX Z (ip), vehicle: carboxymethylcellulose (CMC)); 123 % of control (dose: 1.62 mg/kg/injection, schedule: Q01DX Z (ip), vehicle: carboxymethylcellulose (CMC)); 115 % of control (dose: 1.76 mg/kg/injection, schedule: Q01DX Z (oral), vehicle: carboxymethylcellulose (CMC)); 109 % of control (dose: 2.68 mg/kg/injection, schedule: Q01DX Z (oral), vehicle: carboxymethylcellulose (CMC)); 238 % of control (dose: 3.25 mg/kg/injection, schedule: Q01DX Z (ip), vehicle: carboxymethylcellulose (CMC)); 117 % of control (dose: 4.0 mg/kg/injection, schedule: Q01DX Z (oral), vehicle: carboxymethylcellulose (CMC)). Also, the T/C reads like this: (dose: 6.0 mg/kg/injection, schedule: Q01DX Z (oral), vehicle: carboxymethylcellulose (CMC)) 108 % of control; (dose: 6.5 mg/kg/injection, schedule: Q01DX Z (ip), vehicle: carboxymethylcellulose (CMC)) 173 % of control and 200 % of control; (dose: 8.0 mg/kg/injection, schedule: Q01DX001 (ip), vehicle: carboxymethylcellulose (CMC)) 113 % of control; (dose: 8.0 mg/kg/injection, schedule: Q01DX001 (ip), vehicle: other) 107 % of control; (dose: 11.0 mg/kg/injection, schedule: Q01DX001 (ip), vehicle: carboxymethylcellulose (CMC)) 122 % of control; (dose: 11.0 mg/kg/injection, schedule: Q01DX001 (ip), vehicle: other) 110 % of control. Further, the T/C is, setting by setting: (dose: 25.0 mg/kg/injection, schedule: Q01DX Z (oral), vehicle: carboxymethylcellulose (CMC)) 103 % of control; (dose: 26.0 mg/kg/injection, schedule: Q01DX Z (ip), vehicle: carboxymethylcellulose (CMC)) 104 % of control; (dose: 39.0 mg/kg/injection, schedule: Q01DX001 (ip), vehicle: other) 155 % of control; (dose: 40.0 mg/kg/injection, schedule: Q01DX001 (ip), vehicle: carboxymethylcellulose (CMC)) 152 % of control; (dose: 40.0 mg/kg/injection, schedule: Q01DX001 (ip), vehicle: other) 153 % of control; (dose: 50.0 mg/kg/injection, schedule: Q01DX Z (oral), vehicle: carboxymethylcellulose (CMC)) 105 % of control. For the same molecule, the T/C by setting is: (dose: 53.0 mg/kg/injection, schedule: Q01DX Z (ip), vehicle: carboxymethylcellulose (CMC)) 87 % of control; (dose: 60.0 mg/kg/injection, schedule: Q01DX001 (ip), vehicle: carboxymethylcellulose (CMC)) 214 % of control; (dose: 60.0 mg/kg/injection, schedule: Q01DX001 (ip), vehicle: other) 192 % of control; (dose: 90.0 mg/kg/injection, schedule: Q01DX001 (ip), vehicle: carboxymethylcellulose (CMC)) 234 % of control; (dose: 90.0 mg/kg/injection, schedule: Q01DX001 (ip), vehicle: other) 236 % of control; (dose: 100.0 mg/kg/injection, schedule: Q01DX Z (oral), vehicle: carboxymethylcellulose (CMC)) 103 % of control. For the same molecule, the T/C (dose: 200.0 mg/kg/injection, schedule: Q01DX Z (oral), vehicle: carboxymethylcellulose (CMC)) was 102 % of control.
Take `O=[N+]([O-])c1ccc[nH]1`: the T/C under setting [1] was 98 % of control.
For `Cc1ccc(NC(=O)COc2ccc(Cl)cc2)cc1Cl`, the T/C (dose: 100.0 mg/kg/injection, schedule: Q01DX009 (ip), vehicle: Klucel (hydroxypropylcellulose) (HPC)) is 94 % of control; the T/C under setting [2] was 93 % of control; the T/C (dose: 200.0 mg/kg/injection, schedule: Q01DX009 (ip), vehicle: Klucel (hydroxypropylcellulose) (HPC)) was 86 % of control; the T/C (dose: 200.0 mg/kg/injection, schedule: Q04DX003 (ip), vehicle: Klucel (hydroxypropylcellulose) (HPC)) was 90 % of control; the T/C (dose: 400.0 mg/kg/injection, schedule: Q01DX009 (ip), vehicle: Klucel (hydroxypropylcellulose) (HPC)) was 93 % of control; the T/C (dose: 400.0 mg/kg/injection, schedule: Q04DX003 (ip), vehicle: Klucel (hydroxypropylcellulose) (HPC)) was 101 % of control.
As for `CC(C)(C#N)c1ccnc2ccccc12`, the T/C was 89 % of control (dose: 12.5 mg/kg/injection, schedule: Q01DX009 (ip), vehicle: Klucel (hydroxypropylcellulose) (HPC)); 100 % of control (dose: 25.0 mg/kg/injection, schedule: Q01DX009 (ip), vehicle: Klucel (hydroxypropylcellulose) (HPC)); 104 % of control (dose: 25.0 mg/kg/injection, schedule: Q04DX003 (ip), vehicle: Klucel (hydroxypropylcellulose) (HPC)); 96 % of control (dose: 50.0 mg/kg/injection, schedule: Q04DX003 (ip), vehicle: Klucel (hydroxypropylcellulose) (HPC)); 96 % of control under setting [2].
On to `ClCN(CCl)CCl`, for which the T/C reads like this: (dose: 50.0 mg/kg/injection, schedule: Q01DX001 (ip), vehicle: carboxymethylcellulose (CMC)) 102 % of control; (dose: 100.0 mg/kg/injection, schedule: Q01DX001 (ip), vehicle: carboxymethylcellulose (CMC)) 94 % of control; (dose: 200.0 mg/kg/injection, schedule: Q01DX001 (ip), vehicle: carboxymethylcellulose (CMC)) 105 % of control.
For the molecule `CCCC/C=C/CCl`, the T/C reads like this: under setting [3], 88 % of control; under setting [1], 102 % of control; under setting [4], 91 % of control; under setting [5], 95 % of control; under setting [6], 90 % of control; under setting [7], 98 % of control.
Turning to `COc1ccc2c(c1)Cc1c-2nc2ccccc2c1Cl`, the T/C is 101 % of control (dose: 50.0 mg/kg/injection, schedule: Q01DX001 (ip), vehicle: saline); 93 % of control under setting [3]; 96 % of control under setting [4]; 100 % of control under setting [6].
For `COc1ccc(OP(=O)(N2CC2)N2CC2)cc1`, the T/C is 120 % of control (dose: 75.0 mg/kg/injection, schedule: Q01DX Z (ip), vehicle: carboxymethylcellulose (CMC)) and 160 % of control (dose: 300.0 mg/kg/injection, schedule: Q01DX Z (ip), vehicle: carboxymethylcellulose (CMC)).
As to `O=[N+]([O-])c1cc(Cl)c(Cl)cc1[N+](=O)[O-]`, the T/C under setting [8] was 106 % of control; the T/C (dose: 75.0 mg/kg/injection, schedule: Q04DX002 (ip), vehicle: Klucel (hydroxypropylcellulose) (HPC)) is 103 % of control; the T/C (dose: 150.0 mg/kg/injection, schedule: Q04DX002 (ip), vehicle: Klucel (hydroxypropylcellulose) (HPC)) was 101 % of control and 110 % of control.
On to `CC(CS(=O)(=O)O)N1CCOCC1` (centres undefined), for which the T/C is, setting by setting: (dose: 100.0 mg/kg/injection, schedule: Q01DX009 (ip), vehicle: saline) 95 % of control; under setting [1], 100 % of control; (dose: 200.0 mg/kg/injection, schedule: Q01DX009 (ip), vehicle: saline) 98 % of control; under setting [5], 101 % of control; (dose: 400.0 mg/kg/injection, schedule: Q01DX009 (ip), vehicle: saline) 102 % of control; under setting [7], 97 % of control.
With `CC1(C)CN1Sc1ccc([N+](=O)[O-])cc1` (centres undefined), the T/C is 107 % of control (dose: 25.0 mg/kg/injection, schedule: Q04DX002 (ip), vehicle: Klucel (hydroxypropylcellulose) (HPC)); 103 % of control under setting [8]; 96 % of control and 107 % of control (dose: 100.0 mg/kg/injection, schedule: Q04DX002 (ip), vehicle: Klucel (hydroxypropylcellulose) (HPC)).
